The source of these data is US9340590B2 (priority 2011, dated 2016).

Assay in all cases: cell-based
For one assay, the target named is hNav1.3 (Homo sapiens, UniProt Q9NY46). As to conditions: IonWorks Quattro, use-dependent protocol, hNav1.3; read-out: IWQ Use Nav1.3.
Another assay concerns the target hNav1.7 (Homo sapiens, UniProt Q15858). It counts as cell-based. The following applies: IonWorks Quattro, use-dependent protocol, hNav1.7; read-out: IWQ Use Nav1.7.
The target in a further assay is hNav1.5 (Homo sapiens, UniProt Q14524).
Sequence of hNav1.5 (Q14524 whole entry, looked up): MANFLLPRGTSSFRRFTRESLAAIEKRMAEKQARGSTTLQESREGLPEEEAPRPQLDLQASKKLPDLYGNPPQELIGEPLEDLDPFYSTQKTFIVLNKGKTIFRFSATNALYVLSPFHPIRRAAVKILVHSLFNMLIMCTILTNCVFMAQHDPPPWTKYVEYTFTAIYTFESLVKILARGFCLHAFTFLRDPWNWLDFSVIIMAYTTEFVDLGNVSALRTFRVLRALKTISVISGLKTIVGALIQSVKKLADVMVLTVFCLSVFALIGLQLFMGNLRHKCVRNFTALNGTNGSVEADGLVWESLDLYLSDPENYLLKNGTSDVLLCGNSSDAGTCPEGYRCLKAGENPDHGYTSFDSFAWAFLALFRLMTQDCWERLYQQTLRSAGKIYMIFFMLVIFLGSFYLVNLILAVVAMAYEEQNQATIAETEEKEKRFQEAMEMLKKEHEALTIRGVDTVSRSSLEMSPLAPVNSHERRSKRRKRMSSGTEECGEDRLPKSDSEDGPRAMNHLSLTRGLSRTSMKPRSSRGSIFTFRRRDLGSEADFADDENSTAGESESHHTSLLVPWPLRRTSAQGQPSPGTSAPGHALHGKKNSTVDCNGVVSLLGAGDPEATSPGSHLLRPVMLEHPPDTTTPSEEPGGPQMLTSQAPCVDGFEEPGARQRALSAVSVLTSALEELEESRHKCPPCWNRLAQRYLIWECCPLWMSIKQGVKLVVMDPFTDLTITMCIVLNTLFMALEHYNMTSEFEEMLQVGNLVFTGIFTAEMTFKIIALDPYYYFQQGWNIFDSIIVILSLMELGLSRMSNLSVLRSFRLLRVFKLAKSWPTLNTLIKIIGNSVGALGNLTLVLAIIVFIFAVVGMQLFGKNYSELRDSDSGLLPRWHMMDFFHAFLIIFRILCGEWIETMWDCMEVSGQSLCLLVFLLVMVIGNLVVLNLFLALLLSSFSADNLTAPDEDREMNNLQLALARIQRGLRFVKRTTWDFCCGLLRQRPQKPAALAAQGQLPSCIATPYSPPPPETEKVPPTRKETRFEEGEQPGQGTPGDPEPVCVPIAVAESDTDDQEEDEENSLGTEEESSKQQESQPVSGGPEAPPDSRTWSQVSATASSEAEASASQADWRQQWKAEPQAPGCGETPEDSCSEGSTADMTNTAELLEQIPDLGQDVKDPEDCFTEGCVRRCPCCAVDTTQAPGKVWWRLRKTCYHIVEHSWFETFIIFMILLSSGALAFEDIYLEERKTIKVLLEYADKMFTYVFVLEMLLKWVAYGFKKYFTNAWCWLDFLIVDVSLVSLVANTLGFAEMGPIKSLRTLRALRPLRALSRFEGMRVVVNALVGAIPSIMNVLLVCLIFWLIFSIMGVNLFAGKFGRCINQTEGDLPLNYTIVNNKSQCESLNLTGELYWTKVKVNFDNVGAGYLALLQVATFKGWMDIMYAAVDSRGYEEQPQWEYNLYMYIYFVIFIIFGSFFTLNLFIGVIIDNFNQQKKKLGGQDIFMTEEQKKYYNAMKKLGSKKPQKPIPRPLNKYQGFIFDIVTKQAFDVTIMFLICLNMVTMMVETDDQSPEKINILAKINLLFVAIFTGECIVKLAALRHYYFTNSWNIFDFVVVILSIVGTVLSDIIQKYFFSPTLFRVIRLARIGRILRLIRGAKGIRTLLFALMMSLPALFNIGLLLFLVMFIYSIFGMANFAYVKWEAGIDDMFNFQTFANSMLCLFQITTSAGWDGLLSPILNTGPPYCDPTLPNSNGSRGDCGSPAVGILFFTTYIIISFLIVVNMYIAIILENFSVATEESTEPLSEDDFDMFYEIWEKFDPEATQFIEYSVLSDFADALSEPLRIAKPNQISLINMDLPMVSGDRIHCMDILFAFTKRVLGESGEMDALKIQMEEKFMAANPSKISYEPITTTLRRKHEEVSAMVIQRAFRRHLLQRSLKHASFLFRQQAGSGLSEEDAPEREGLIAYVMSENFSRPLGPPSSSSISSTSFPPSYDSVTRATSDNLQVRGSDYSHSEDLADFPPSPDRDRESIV
[1] abbreviates: IonWorks Quattro, use-dependent protocol, hNav1.5, read-out: IWQ Use Nav1.5.

pIC50: −log10 of the molar value. Read-outs that look alike come from different tables or passages of the source. Positions of bridges follow the written chain, without caps; N, C: chain ends. Non-standard residues stand in square brackets, D forms with d. Residues, ends and D or L forms follow the SMILES beside them. Pra = C#CC[C@H](N)C(=O)O

Sequence of hNav1.7 (Q15858 whole entry, looked up): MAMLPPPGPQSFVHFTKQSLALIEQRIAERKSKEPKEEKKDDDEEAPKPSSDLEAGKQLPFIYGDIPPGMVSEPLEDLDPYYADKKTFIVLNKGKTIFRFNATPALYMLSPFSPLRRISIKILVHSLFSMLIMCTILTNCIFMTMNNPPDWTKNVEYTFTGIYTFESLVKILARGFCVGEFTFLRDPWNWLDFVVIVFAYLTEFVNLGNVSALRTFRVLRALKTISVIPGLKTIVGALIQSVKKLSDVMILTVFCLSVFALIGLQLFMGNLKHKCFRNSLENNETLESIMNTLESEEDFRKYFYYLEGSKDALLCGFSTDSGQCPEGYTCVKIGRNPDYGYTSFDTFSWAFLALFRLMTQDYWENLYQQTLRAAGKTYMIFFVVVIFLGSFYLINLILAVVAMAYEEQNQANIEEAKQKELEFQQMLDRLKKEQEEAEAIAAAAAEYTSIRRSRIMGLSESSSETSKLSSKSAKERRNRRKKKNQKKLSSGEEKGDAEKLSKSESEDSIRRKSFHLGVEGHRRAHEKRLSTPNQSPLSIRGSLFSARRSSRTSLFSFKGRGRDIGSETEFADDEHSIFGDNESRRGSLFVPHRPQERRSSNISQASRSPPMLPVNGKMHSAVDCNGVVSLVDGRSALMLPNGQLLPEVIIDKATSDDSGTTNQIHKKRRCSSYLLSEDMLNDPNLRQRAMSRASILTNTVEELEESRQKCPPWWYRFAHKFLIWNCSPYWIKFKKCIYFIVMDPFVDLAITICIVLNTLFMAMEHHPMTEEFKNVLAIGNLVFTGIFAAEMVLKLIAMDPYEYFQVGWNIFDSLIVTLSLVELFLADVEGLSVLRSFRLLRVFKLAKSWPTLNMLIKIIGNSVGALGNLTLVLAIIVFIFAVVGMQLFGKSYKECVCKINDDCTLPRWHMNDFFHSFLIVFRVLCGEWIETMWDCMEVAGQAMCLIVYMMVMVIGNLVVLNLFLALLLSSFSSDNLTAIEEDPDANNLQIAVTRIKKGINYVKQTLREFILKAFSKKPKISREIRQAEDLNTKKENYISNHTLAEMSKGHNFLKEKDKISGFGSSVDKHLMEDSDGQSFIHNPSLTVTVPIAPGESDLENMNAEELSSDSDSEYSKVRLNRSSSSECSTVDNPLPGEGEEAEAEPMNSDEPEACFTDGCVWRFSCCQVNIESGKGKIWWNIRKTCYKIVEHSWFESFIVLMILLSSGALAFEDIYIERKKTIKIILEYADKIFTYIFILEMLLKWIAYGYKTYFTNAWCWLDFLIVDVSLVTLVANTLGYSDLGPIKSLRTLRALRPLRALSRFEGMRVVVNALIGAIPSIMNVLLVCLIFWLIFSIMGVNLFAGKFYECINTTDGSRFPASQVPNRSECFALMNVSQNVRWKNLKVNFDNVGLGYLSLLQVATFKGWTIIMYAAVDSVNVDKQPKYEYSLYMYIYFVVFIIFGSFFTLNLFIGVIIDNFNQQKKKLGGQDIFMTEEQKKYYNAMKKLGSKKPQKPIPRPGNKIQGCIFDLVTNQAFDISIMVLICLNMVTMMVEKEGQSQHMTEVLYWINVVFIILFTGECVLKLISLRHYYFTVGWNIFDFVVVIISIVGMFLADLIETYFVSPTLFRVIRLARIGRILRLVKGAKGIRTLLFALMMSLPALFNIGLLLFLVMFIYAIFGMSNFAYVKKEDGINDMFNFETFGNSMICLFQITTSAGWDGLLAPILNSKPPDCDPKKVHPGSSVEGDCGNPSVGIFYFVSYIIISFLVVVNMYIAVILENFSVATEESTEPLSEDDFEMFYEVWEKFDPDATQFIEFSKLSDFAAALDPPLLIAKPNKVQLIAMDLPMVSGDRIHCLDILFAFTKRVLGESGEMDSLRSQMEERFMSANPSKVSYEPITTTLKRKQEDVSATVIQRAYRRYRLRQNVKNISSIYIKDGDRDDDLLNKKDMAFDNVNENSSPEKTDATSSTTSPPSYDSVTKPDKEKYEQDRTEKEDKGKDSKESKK

Take `CCC[C@@H]1NC(=O)CNC(=O)[C@H](CC(C)C)NC(=O)[C@@H](NC(=O)[C@@H](N)CC(=O)O)CSSC[C@@H]2NC(=O)[C@@H]3CSSC[C@@H](C(=O)N[C@@H](CCCCN)C(=O)N[C@@H](Cc4ccc(O)cc4)C(=O)N[C@H](C(=O)N[C@@H](Cc4ccccc4)C(N)=O)C(C)C)NC(=O)[C@H](Cc4c[nH]c5ccccc45)NC(=O)[C@H](CCCCN)NC(=O)[C@H](Cc4c[nH]cn4)NC(=O)[C@H]([C@@H](C)O)NC(=O)[C@H](CCCNC(=N)N)NC(=O)[C@H](CO)NC(=O)[C@H](CSSC[C@H](NC(=O)[C@H](CCCCN)NC(=O)[C@H](CCCNC(=N)N)NC(=O)[C@H](CC(C)C)NC1=O)C(=O)N[C@@H]([C@@H](C)CC)C(=O)N1CCC[C@H]1C(=O)N[C@@H](CC(=O)O)C(=O)N[C@@H](CC(N)=O)C(=O)N[C@@H](CC(=O)O)C(=O)N[C@@H](CCCCN)C(=O)N3)NC(=O)[C@H](C(C)C)NC(=O)[C@H](CC(C)C)NC(=O)[C@H](CC(N)=O)NC(=O)[C@@H]1CCCN1C(=O)[C@H](CCCNC(=N)N)NC2=O` [compound 637]: the pIC50 at hNav1.3 was 6.15; on hNav1.7 it was 7.02; at hNav1.5 (setting [1]), 5.10.

Regarding `CCCC[C@@H]1NC(=O)CNC(=O)[C@H](CC(C)C)NC(=O)[C@@H](NC(=O)[C@@H](N)CC(=O)O)CSSC[C@@H]2NC(=O)[C@@H]3CSSC[C@@H](C(=O)N[C@@H](CCCCN)C(=O)N[C@@H](Cc4ccc(O)cc4)C(=O)N[C@H](C(=O)N[C@@H](Cc4ccccc4)C(N)=O)C(C)C)NC(=O)[C@H](Cc4c[nH]c5ccccc45)NC(=O)[C@H](CCCCN)NC(=O)[C@H](Cc4c[nH]cn4)NC(=O)[C@H]([C@@H](C)O)NC(=O)[C@H](CCCNC(=N)N)NC(=O)[C@H](CO)NC(=O)[C@H](CSSC[C@H](NC(=O)[C@H](CCCCN)NC(=O)[C@H](CCCNC(=N)N)NC(=O)[C@H](CC(C)C)NC1=O)C(=O)N[C@@H]([C@@H](C)CC)C(=O)N1CCC[C@H]1C(=O)N[C@@H](CC(=O)O)C(=O)N[C@@H](CC(N)=O)C(=O)N[C@@H](CC(=O)O)C(=O)N[C@@H](CCCCN)C(=O)N3)NC(=O)[C@H](C(C)C)NC(=O)[C@H](CC(C)C)NC(=O)[C@H](CC(N)=O)NC(=O)[C@@H]1CCCN1C(=O)[C@H](CCCNC(=N)N)NC2=O` [compound 638], the pIC50 on hNav1.3 is 7.00; on hNav1.7 it was 7.60; on hNav1.5 (setting [1]) it was 4.97.

For the compound `CCCCCCCC[C@@H]1NC(=O)CNC(=O)[C@H](CC(C)C)NC(=O)[C@@H](NC(=O)[C@@H](N)CC(=O)O)CSSC[C@@H]2NC(=O)[C@@H]3CSSC[C@@H](C(=O)N[C@@H](CCCCN)C(=O)N[C@@H](Cc4ccc(O)cc4)C(=O)N[C@H](C(=O)N[C@@H](Cc4ccccc4)C(N)=O)C(C)C)NC(=O)[C@H](Cc4c[nH]c5ccccc45)NC(=O)[C@H](CCCCN)NC(=O)[C@H](Cc4c[nH]cn4)NC(=O)[C@H]([C@@H](C)O)NC(=O)[C@H](CCCNC(=N)N)NC(=O)[C@H](CO)NC(=O)[C@H](CSSC[C@H](NC(=O)[C@H](CCCCN)NC(=O)[C@H](CCCNC(=N)N)NC(=O)[C@H](CC(C)C)NC1=O)C(=O)N[C@@H]([C@@H](C)CC)C(=O)N1CCC[C@H]1C(=O)N[C@@H](CC(=O)O)C(=O)N[C@@H](CC(N)=O)C(=O)N[C@@H](CC(=O)O)C(=O)N[C@@H](CCCCN)C(=O)N3)NC(=O)[C@H](C(C)C)NC(=O)[C@H](CC(C)C)NC(=O)[C@H](CC(N)=O)NC(=O)[C@@H]1CCCN1C(=O)[C@H](CCCNC(=N)N)NC2=O` [compound 639], the pIC50 on hNav1.3 is 7.48; at hNav1.7 it was 7.82; on hNav1.5 (setting [1]), 5.77.

With `C#CC[C@@H]1NC(=O)[C@H](CC(=O)O)NC(=O)[C@@H]2CCCN2C(=O)[C@H]([C@@H](C)CC)NC(=O)[C@@H]2CSSC[C@@H]3NC(=O)[C@H](C(C)C)NC(=O)[C@H](CC(C)C)NC(=O)[C@H](CC(N)=O)NC(=O)[C@@H]4CCCN4C(=O)[C@H](CCCNC(=N)N)NC(=O)[C@H](CSSC[C@H](NC(=O)[C@@H](N)CC(=O)O)C(=O)N[C@@H](CC(C)C)C(=O)NCC(=O)N[C@@H](C)C(=O)N[C@@H](Cc4ccccc4)C(=O)N[C@@H](CCCNC(=N)N)C(=O)N[C@@H](CCCCN)C(=O)N2)NC(=O)[C@H](CSSC[C@@H](C(=O)N[C@@H](CCCCN)C(=O)N[C@@H](Cc2ccc(O)cc2)C(=O)N[C@H](C(=O)N[C@@H](Cc2ccccc2)C(N)=O)C(C)C)NC(=O)[C@H](Cc2c[nH]c4ccccc24)NC(=O)[C@H](CCCNC(=N)N)NC(=O)[C@H](Cc2c[nH]cn2)NC(=O)[C@H](CC(C)C)NC(=O)[C@H](CCCNC(=N)N)NC(=O)[C@H](CO)NC3=O)NC(=O)[C@H](CCCCN)NC(=O)[C@H](CC(=O)O)NC1=O` [compound 640] (H-DCLGAFRKCIPD[Pra]DKCCRPNLVCSRLHRWCKYVF-NH2; disulfide 2-17, 9-23, 16-30), the pIC50 at hNav1.3 is 7.05; on hNav1.7, 6.99; on hNav1.5 (setting [1]) it was under 5.30.

For the compound `CC[C@H](C)[C@@H]1NC(=O)[C@@H]2CSSC[C@@H]3NC(=O)[C@H](C(C)C)NC(=O)[C@H](CC(C)C)NC(=O)[C@H](CC(N)=O)NC(=O)[C@@H]4CCCN4C(=O)[C@H](CCCNC(=N)N)NC(=O)[C@H](CSSC[C@H](NC(=O)[C@@H](N)CC(=O)O)C(=O)N[C@@H](CC(C)C)C(=O)NCC(=O)N[C@@H](CCSC)C(=O)N[C@@H](CC(C)C)C(=O)N[C@@H](CCCNC(=N)N)C(=O)N[C@@H](CCCCN)C(=O)N2)NC(=O)[C@H](CSSC[C@@H](C(=O)N[C@@H](CCCCN)C(=O)N[C@@H](Cc2ccc(O)cc2)C(=O)N[C@H](C(=O)N[C@@H](Cc2ccccc2)C(N)=O)C(C)C)NC(=O)[C@H](Cc2c[nH]c4ccccc24)NC(=O)[C@H](CCCCN)NC(=O)[C@H](Cc2c[nH]cn2)NC(=O)[C@H]([C@@H](C)O)NC(=O)[C@H](CCCNC(=N)N)NC(=O)[C@H](CO)NC3=O)NC(=O)[C@H](CCCCN)NC(=O)[C@H](CC(=O)O)NC(=O)[C@H](CC(N)=O)NC(=O)[C@H](CC(=O)O)NC(=O)[C@@H]2CCCN2C1=O` [compound 641] (H-DCLGMLRKCIPDNDKCCRPNLVCSRTHKWCKYVF-NH2; disulfide 2-17, 9-23, 16-30), the pIC50 at hNav1.3 was 6.62; at hNav1.7 it was 7.16; at hNav1.5 (IWQ Use Nav1.5), under 5.30.

For the compound `CC[C@H](C)[C@@H]1NC(=O)[C@@H]2CSSC[C@@H]3NC(=O)[C@H](C(C)C)NC(=O)[C@H](CC(C)C)NC(=O)[C@H](CC(N)=O)NC(=O)[C@@H]4CCCN4C(=O)[C@H](CCCNC(=N)N)NC(=O)[C@H](CSSC[C@H](NC(=O)[C@@H](N)CC(=O)O)C(=O)N[C@@H](CC(C)C)C(=O)NCC(=O)N[C@@H](Cc4cccnc4)C(=O)N[C@@H](CC(C)C)C(=O)N[C@@H](CCCNC(=N)N)C(=O)N[C@@H](CCCCN)C(=O)N2)NC(=O)[C@H](CSSC[C@@H](C(=O)N[C@@H](CCCCN)C(=O)N[C@@H](Cc2ccc(O)cc2)C(=O)N[C@H](C(=O)N[C@@H](Cc2ccccc2)C(N)=O)C(C)C)NC(=O)[C@H](Cc2c[nH]c4ccccc24)NC(=O)[C@H](CCCCN)NC(=O)[C@H](Cc2c[nH]cn2)NC(=O)[C@H]([C@@H](C)O)NC(=O)[C@H](CCCNC(=N)N)NC(=O)[C@H](CO)NC3=O)NC(=O)[C@H](CCCCN)NC(=O)[C@H](CC(=O)O)NC(=O)[C@H](CC(N)=O)NC(=O)[C@H](CC(=O)O)NC(=O)[C@@H]2CCCN2C1=O` [compound 642], the figures for the pIC50 on hNav1.3, at hNav1.7 and at hNav1.5 (setting [1]) were 5.41, 5.77 and under 5.30, respectively.

Consider `CC[C@H](C)[C@@H]1NC(=O)[C@@H]2CSSC[C@@H]3NC(=O)[C@H](C(C)C)NC(=O)[C@H](CC(C)C)NC(=O)[C@H](CC(N)=O)NC(=O)[C@@H]4CCCN4C(=O)[C@H](CCCNC(=N)N)NC(=O)[C@H](CSSC[C@H](NC(=O)[C@@H](N)CC(=O)O)C(=O)N[C@@H](CC(C)C)C(=O)NCC(=O)N[C@@H](CO)C(=O)N[C@@H](CC(C)C)C(=O)N[C@@H](CCCNC(=N)N)C(=O)N[C@@H](CCCCN)C(=O)N2)NC(=O)[C@H](CSSC[C@@H](C(=O)N[C@@H](CCCCN)C(=O)N[C@@H](Cc2ccc(O)cc2)C(=O)N[C@H](C(=O)N[C@@H](Cc2ccccc2)C(N)=O)C(C)C)NC(=O)[C@H](Cc2c[nH]c4ccccc24)NC(=O)[C@H](CCCCN)NC(=O)[C@H](Cc2c[nH]cn2)NC(=O)[C@H]([C@@H](C)O)NC(=O)[C@H](CCCNC(=N)N)NC(=O)[C@H](CO)NC3=O)NC(=O)[C@H](CCCCN)NC(=O)[C@H](CC(=O)O)NC(=O)[C@H](CC(N)=O)NC(=O)[C@H](CC(=O)O)NC(=O)[C@@H]2CCCN2C1=O` [compound 643] (H-DCLGSLRKCIPDNDKCCRPNLVCSRTHKWCKYVF-NH2; disulfide 2-17, 9-23, 16-30), for which the pIC50 at hNav1.3 was 5.49; on hNav1.7 it was 5.89; on hNav1.5 (setting [1]) it was under 5.30.

With `CC[C@H](C)[C@@H]1NC(=O)[C@@H]2CSSC[C@@H]3NC(=O)[C@H](C(C)C)NC(=O)[C@H](CC(C)C)NC(=O)[C@H](CC(N)=O)NC(=O)[C@@H]4CCCN4C(=O)[C@H](CCCNC(=N)N)NC(=O)[C@H](CSSC[C@H](NC(=O)[C@@H](N)CC(=O)O)C(=O)N[C@@H](CC(C)C)C(=O)NCC(=O)N[C@@H](C(C)C)C(=O)N[C@@H](CC(C)C)C(=O)N[C@@H](CCCNC(=N)N)C(=O)N[C@@H](CCCCN)C(=O)N2)NC(=O)[C@H](CSSC[C@@H](C(=O)N[C@@H](CCCCN)C(=O)N[C@@H](Cc2ccc(O)cc2)C(=O)N[C@H](C(=O)N[C@@H](Cc2ccccc2)C(N)=O)C(C)C)NC(=O)[C@H](Cc2c[nH]c4ccccc24)NC(=O)[C@H](CCCCN)NC(=O)[C@H](Cc2c[nH]cn2)NC(=O)[C@H]([C@@H](C)O)NC(=O)[C@H](CCCNC(=N)N)NC(=O)[C@H](CO)NC3=O)NC(=O)[C@H](CCCCN)NC(=O)[C@H](CC(=O)O)NC(=O)[C@H](CC(N)=O)NC(=O)[C@H](CC(=O)O)NC(=O)[C@@H]2CCCN2C1=O` [compound 644] (H-DCLGVLRKCIPDNDKCCRPNLVCSRTHKWCKYVF-NH2; disulfide 2-17, 9-23, 16-30), the pIC50 at hNav1.3 was 6.32; at hNav1.7 it was 6.82; on hNav1.5 (setting [1]) it was under 5.30.
